Assay results published in ChEMBL document CHEMBL4837225, “Water-soluble derivatives of evodiamine: Discovery of evodiamine-10-phosphate as an orally active antitumor lead compound” (Eur J Med Chem, 2021).
pIC50: −log10 of the molar value. Activity calls are given as the source filed them. No cut-off for these calls is given here.

Assays:
[1] = tested on: HCT-116; assay: Induction of apoptosis in human HCT-116 cells assessed as early apoptotic cells level at 0.5 uM incubated for 48 hrs by annexin V-FITC/propidium iodide staining based flow cytometry (reference value: 2.02%); type: functional
[2] = tested on: HCT-116; assay: Induction of apoptosis in human HCT-116 cells assessed as increase in p-53 level at 0.2 to 5 uM measured after 24 hrs by Western blot analysis; type: functional, cell-based; settings: dose 0.2-5 µM
[3] = tested on: MDA-MB-231; assay: Antiproliferative activity against human MDA-MB-231 cells assessed as inhibition of cell proliferation incubated for 72 hrs by CCK8 assay; type: functional, cell-based; settings: MDA-MB-231, 72 h
[4] = Toxicity in BALB/c nude mouse xenografted with human A549 cells assessed as effect on body weight at 150 mg/kg, po bid for 14 days; type: organism-based; settings: in vivo, 336 h, time 14 day
[5] = tested on: HCT-116; assay: Cell cycle arrest in human HCT-116 cells assessed as accumulation at S phase at 0.1 uM incubated for 24 hrs by propidium iodide staining based flow cytometric analysis (Rvb =44.3 %); type: functional
[6] = Toxicity in BALB/c nude mouse xenografted with human HCT-116 cells assessed as effect on body weight at 150 mg/kg, po bid for 21 days relative to control; type: organism-based; settings: in vivo, 504 h, time 21 day
[7] = tested on: HCT-116; assay: Induction of apoptosis in human HCT-116 cells assessed as increase in caspase-9 level at 0.2 to 5 uM measured after 24 hrs by Western blot analysis; type: functional, cell-based; settings: dose 0.2-5 µM
[8] = tested on: HCT-116; assay: Cell cycle arrest in human HCT-116 cells assessed as accumulation at S phase at 0.5 uM incubated for 24 hrs by propidium iodide staining based flow cytometric analysis (Rvb =44.3 %); type: functional
[9] = Toxicity in BALB/c nude mouse xenografted with human HCT-116 cells assessed as effect on body weight at 60 mg/kg, po bid for 21 days relative to control; type: organism-based; settings: in vivo, 504 h, time 21 day
[10] = tested on: A549; assay: Antiproliferative activity against human A549 cells assessed as inhibition of cell proliferation incubated for 72 hrs by CCK8 assay; type: functional, cell-based; settings: A549, 72 h
[11] = tested on: HCT-116; assay: Induction of apoptosis in human HCT-116 cells assessed as early apoptotic cells level at 0.05 uM incubated for 48 hrs by annexin V-FITC/propidium iodide staining based flow cytometry (reference value: 2.02%); type: functional
[12] = tested on: HCT-116; assay: Cell cycle arrest in human HCT-116 cells assessed as accumulation at G2 phase at 0.1 uM incubated for 24 hrs by propidium iodide staining based flow cytometric analysis (Rvb =20 %); type: functional
[13] = target: T1, DNA topoisomerase 1 (Homo sapiens) (UniProt P11387); assay: Inhibition of TOP1 (unknown origin) assessed as decrease in relaxation of supercoiled DNA using pBR322 plasmid DNA by ethidium bromide staining based gel electrophoresis
T1 sequence (whole entry): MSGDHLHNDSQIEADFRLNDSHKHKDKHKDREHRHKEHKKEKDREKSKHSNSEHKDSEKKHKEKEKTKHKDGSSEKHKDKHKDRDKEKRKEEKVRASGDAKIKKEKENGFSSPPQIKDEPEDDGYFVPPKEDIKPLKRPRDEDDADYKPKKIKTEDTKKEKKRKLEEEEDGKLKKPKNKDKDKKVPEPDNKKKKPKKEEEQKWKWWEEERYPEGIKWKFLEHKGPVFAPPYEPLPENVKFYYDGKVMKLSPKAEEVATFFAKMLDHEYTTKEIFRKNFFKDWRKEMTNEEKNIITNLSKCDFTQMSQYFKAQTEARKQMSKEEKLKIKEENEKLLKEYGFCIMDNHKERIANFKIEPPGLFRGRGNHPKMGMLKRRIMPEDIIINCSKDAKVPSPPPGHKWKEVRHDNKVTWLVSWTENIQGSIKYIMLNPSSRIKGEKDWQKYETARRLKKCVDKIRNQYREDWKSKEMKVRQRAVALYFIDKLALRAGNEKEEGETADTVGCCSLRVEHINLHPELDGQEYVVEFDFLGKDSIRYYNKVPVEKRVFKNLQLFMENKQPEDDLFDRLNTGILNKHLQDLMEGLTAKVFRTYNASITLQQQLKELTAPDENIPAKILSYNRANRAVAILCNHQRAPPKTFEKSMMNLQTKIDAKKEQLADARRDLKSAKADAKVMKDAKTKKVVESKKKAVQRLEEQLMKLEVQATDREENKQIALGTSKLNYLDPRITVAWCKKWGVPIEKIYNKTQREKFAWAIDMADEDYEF

[14] = tested on: HCT-116; assay: Induction of apoptosis in human HCT-116 cells assessed as increase in caspase-3 level at 0.2 to 5 uM measured after 24 hrs by Western blot analysis; type: functional, cell-based; settings: dose 0.2-5 µM
[15] = tested on: HCT-116; assay: Antitumor activity against human HCT-116 cells xenografted in BALB/c nude mouse assessed as inhibition of tumor growth at 150 mg/kg, po BID measured by caliper relative to control; type: functional; settings: HCT-116, po, read-out: TGI
[16] = tested on: HCT-116; assay: Induction of apoptosis in human HCT-116 cells assessed as upregulation of Bax expression at 0.2 to 5 uM measured after 24 hrs by Western blot analysis; type: functional, cell-based; settings: dose 0.2-5 µM
[17] = target: DNA topoisomerase 2-alpha (Homo sapiens) (UniProt P11388); assay: Inhibition of TOP2 (unknown origin) assessed as formation of short DNA fragments using supercoiled plasmid DNA at 100 uM by ethidium bromide staining based gel
DNA topoisomerase 2-alpha (Homo sapiens), sequence (P11388 whole entry, the tested form may be a part): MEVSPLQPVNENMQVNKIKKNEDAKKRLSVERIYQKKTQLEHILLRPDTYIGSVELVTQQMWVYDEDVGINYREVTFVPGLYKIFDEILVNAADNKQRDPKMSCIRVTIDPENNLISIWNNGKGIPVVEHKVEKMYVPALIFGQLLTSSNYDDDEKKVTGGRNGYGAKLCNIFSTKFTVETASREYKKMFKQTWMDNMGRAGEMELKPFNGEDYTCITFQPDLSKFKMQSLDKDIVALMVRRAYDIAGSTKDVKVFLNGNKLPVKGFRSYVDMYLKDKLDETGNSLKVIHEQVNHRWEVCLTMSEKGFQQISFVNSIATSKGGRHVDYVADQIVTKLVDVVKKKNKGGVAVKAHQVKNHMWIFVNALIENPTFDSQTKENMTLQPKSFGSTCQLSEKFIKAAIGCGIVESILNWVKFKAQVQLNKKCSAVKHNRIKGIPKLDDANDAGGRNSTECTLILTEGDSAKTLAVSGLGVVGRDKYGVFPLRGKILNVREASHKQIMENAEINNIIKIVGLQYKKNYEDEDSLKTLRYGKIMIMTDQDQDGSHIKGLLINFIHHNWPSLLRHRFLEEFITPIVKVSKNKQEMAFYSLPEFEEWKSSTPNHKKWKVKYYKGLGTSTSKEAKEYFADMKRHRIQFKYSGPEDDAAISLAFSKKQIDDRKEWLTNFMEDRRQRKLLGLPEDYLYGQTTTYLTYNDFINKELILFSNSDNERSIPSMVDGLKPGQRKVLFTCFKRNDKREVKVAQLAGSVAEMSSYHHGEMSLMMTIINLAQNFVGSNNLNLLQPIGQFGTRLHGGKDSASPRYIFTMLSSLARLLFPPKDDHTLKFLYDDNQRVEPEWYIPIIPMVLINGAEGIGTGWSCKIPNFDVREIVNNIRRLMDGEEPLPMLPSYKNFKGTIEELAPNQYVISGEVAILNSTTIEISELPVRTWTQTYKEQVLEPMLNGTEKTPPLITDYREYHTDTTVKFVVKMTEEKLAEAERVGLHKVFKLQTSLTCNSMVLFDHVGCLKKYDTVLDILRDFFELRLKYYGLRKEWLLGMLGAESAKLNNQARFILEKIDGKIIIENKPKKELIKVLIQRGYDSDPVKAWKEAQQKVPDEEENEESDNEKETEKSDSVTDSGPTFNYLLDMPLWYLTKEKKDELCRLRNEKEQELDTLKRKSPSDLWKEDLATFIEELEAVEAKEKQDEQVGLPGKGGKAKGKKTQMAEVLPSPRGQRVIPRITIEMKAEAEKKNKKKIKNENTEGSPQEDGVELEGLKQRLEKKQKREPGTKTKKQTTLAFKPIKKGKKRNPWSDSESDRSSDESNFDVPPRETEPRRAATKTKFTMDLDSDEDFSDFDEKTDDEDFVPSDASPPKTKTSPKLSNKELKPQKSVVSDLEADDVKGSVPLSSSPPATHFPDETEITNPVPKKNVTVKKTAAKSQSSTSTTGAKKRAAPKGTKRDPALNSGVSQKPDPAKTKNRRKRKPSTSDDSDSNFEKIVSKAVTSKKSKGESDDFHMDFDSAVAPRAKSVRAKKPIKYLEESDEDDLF

[18] = tested on: HCT-116; assay: Antitumor activity against human HCT-116 cells xenografted in iv dosed BALB/c nude mouse assessed as inhibition of tumor growth measured by caliper relative to control; type: functional
[19] = tested on: HCT-116; assay: Induction of apoptosis in human HCT-116 cells assessed as late apoptotic cells level at 0.1 uM incubated for 48 hrs by annexin V-FITC/propidium iodide staining based flow cytometry (reference value: 1.87%); type: functional
[20] = tested on: HCT-116; assay: Induction of apoptosis in human HCT-116 cells assessed as downregulation of Bcl-2 expression at 0.2 to 5 uM measured after 24 hrs by Western blot analysis; type: functional, cell-based; settings: dose 0.2-5 µM
[21] = tested on: HCT-116; assay: Cell cycle arrest in human HCT-116 cells assessed as accumulation at G1 phase at 0.1 uM incubated for 24 hrs by propidium iodide staining based flow cytometric analysis (Rvb =35.7 %); type: functional
[22] = tested on: HCT-116; assay: Cell cycle arrest in human HCT-116 cells assessed as accumulation at G1 phase at 0.5 uM incubated for 24 hrs by propidium iodide staining based flow cytometric analysis (Rvb =35.7 %); type: functional
[23] = tested on: HCT-116; assay: Induction of apoptosis in human HCT-116 cells assessed as late apoptotic cells level at 0.05 uM incubated for 48 hrs by annexin V-FITC/propidium iodide staining based flow cytometry (reference value: 1.87%); type: functional
[24] = tested on: HCT-116; assay: Antiproliferative activity against human HCT-116 cells assessed as inhibition of cell proliferation incubated for 72 hrs by CCK8 assay; type: functional, cell-based; settings: HCT-116, 72 h
[25] = tested on: HCT-116; assay: Induction of apoptosis in human HCT-116 cells assessed as late apoptotic cells level at 0.5 uM incubated for 48 hrs by annexin V-FITC/propidium iodide staining based flow cytometry (reference value: 1.87%); type: functional
[26] = Solubility of the compound in PBS buffer at pH 7.4; type: physicochemical
[27] = target: DNA topoisomerase 2-alpha (Homo sapiens) (UniProt P11388); assay: Inhibition of TOP2 (unknown origin) by ethidium bromide staining based gel electrophoresis

For CN1c2ccccc2C(=O)N2CCc3c([nH]c4ccc(OP(=O)(O)O)cc34)C21 (configuration not stated), which Activity [1] is on record?
The Activity was 44.04%.

And the Activity [2]?
Its Activity is “Active”.

And the pIC50 [3]?
The pIC50 was 6.19.

And the Activity [4]?
Its Activity is “Non-Toxic”.

And the Activity [5]?
The Activity was 40.7%.

And the Activity [6]?
Its Activity is “Toxic”.

What about the Activity [7] of the same compound?
The Activity was “Active”.

And the Activity [8]?
Its Activity is 30.4%.

What about the Activity [9] of the same compound?
The Activity was “Non-Toxic”.

And the pIC50 [10]?
Its pIC50 is 5.59.

And the Activity [11]?
Its Activity is 15.1%.

And the Activity [12]?
Its Activity is 53.4%.

And the inhibition [13]?
The inhibition was “Dose-Dependent Effect”.

And the Activity [14]?
The Activity was “Active”.

What about the inhibition in vivo at 150 mg/kg [15] of the same compound?
Its inhibition in vivo at 150 mg/kg is 48%.

What about the Activity [16] of the same compound?
The Activity was “Active”.

What about the inhibition [17] of the same compound?
Its inhibition is “Active”.

What about the TGI [18] of the same compound?
The TGI was 45%.

And the Activity [19]?
Its Activity is 14.8%.

And the Activity [20]?
Its Activity is “Active”.

What about the Activity [21] of the same compound?
The Activity was 6%.

And the Activity [22]?
The Activity was 4.3%.

And the Activity [23]?
Its Activity is 8.45%.

And the pIC50 [24]?
The pIC50 was 7.18.

What about the Activity [25] of the same compound?
Its Activity is 13.49%.

And the solubility [26]?
Its solubility is greater than 1000 µg/mL.

And the inhibition [27]?
The inhibition was “Dose-Dependent Effect”.
